Results taken from patent publication US20260258373A1, “PEPTIDE TAGS FOR PHAGE IMAGING” (priority 2022, published 2026).
Where two headings read alike, the source gives them in different places. Cy5 = cyanine 5 dye

Key:
Good Vibes phage (GV) [1] = details: GV 1, 10 or 65 μg coated; 0.01 μg peptide; absorbance 450 nm; FIG. 5B
Experimental: GV (1, 10 or 65 μg) was coated onto Nunc Maxisorp flat-bottom 96-well plates and incubated for 1 h at room temperature, shaking at 400 rpm. All incubation and washing steps were carried out at room temperature, shaking at 400 rpm, unless otherwise stated. The wells were blocked for 1 h with 300 μL 5% (w/v) BSA followed by washing once with 0.1% PBST for 5 min. Applicant then added 0.01 μg of GVBP-biotin peptide to the wells and incubated for 1 h. The wells were then washed three times with 0.1% PBST for 5 min each before adding streptavidin HRP conjugate (ab7403) diluted 1:10,000 and incubating for 30 min. The wells were washed another three times as above before adding 100 μL of TMB substrate and incubating for 5-10 min in the dark. The reaction was stopped by adding 50 μL 2M H2SO4 and the absorbance was measured at 450 nm using an Infinite 200 Rx plate reader as described above.

BSA = BSA (Bos taurus, UniProt P02769); assay: Cross-reactivity ELISA against BSA (negative control); assay type: binding, bovine; details: peptide displayed on monoclonal phage, cross-reactivity assay
Experimental: (§1) A Nunc Maxisorp flat-bottom 96-well plate was coated with 6×10^9 pfu GV per well (in TBS, pH 8) and incubated overnight at 4° C. Plates coated with 2% (w/v) bovine serum albumin (BSA) were used as negative controls. Next day, the plates were blocked with 2% (w/v) BSA at room temperature for 1 h, shaking at 800 rpm. The plates were then washed with 0.1% TBST (3×1 min) before adding 20 μL of amplified phage from each biopanning cycle to each well in 5% (w/v) BSA. After further incubation at room temperature for 1 h, shaking at 800 rpm, the plates were washed with 0.5% TBST (3×5 min) before adding 100 μL horseradish peroxidase (HRP)-conjugated anti-M13 monoclonal antibody (Abcam ab50370, diluted 1:500) and incubating at room temperature for 1 h, shaking at 800 rpm. After further washes in 0.5% TBST (3×5 min), Applicant added 100 μL of the tetramethylbenzidine (TMB) substrate (Thermo Fisher Scientific) to each well. The plates were incubated in the dark for 10 min and the absorbance was measured at 370 nm using an Infinite 200 Rx plate reader (Tecan Life Sciences) with 25 flashes in 96-well flat-bottom plate mode.
(§2) The protocol was similar to the polyclonal ELISA. Applicant coated wells with 10 μg cowpea mosaic virus (CPMV) or 1010 GV particles to assess their binding activity.

Good Vibes phage (GV) [2] = assay: Monoclonal phage ELISA (cross-reactivity / validation) against GV; assay type: binding; details: peptide displayed on monoclonal phage; cross-reactivity assay
Experimental: as §1
The protocol was similar to the polyclonal ELISA. […] Monoclonal phages differing in absorbance between GV and BSA by at least 0.3 units were isolated for DNA sanger sequencing (Eurofins Genomics). […]

[3] = system: cowpea mosaic virus (CPMV); assay: Cross-reactivity ELISA against CPMV; assay type: binding; details: peptide displayed on monoclonal phage; cross-reactivity assay
Experimental: as §1, §2

Matera (MAT) = assay: Monoclonal phage ELISA (cross-reactivity / validation) against MAT; assay type: binding, Matera (family Myoviridae); details: peptide displayed on monoclonal phage; cross-reactivity assay
[4] = system: GV bound to P. aeruginosa cells; assay: Flow cytometry of GVBP-Cy5, cells with phages; assay type: binding, Good Vibes phage on Pseudomonas aeruginosa
Experimental: (§3) An overnight culture of P. aeruginosa was diluted 100-fold in fresh medium. The culture was incubated at 37° C. to reach OD600~0.2 before adding ~10^11 pfu of GV to the cells and incubating at 37° C. for 15 min. The cells were pelleted by centrifugation (6000 g, 15 min, at room temperature), washed once with 800 μL TM buffer (10 mM Tris base, 5 μM CaCl2), 10 mM MgSO4, pH 7.4) and resuspended in 200 μL of the same buffer. Applicant added GVBP-Cy5 (2×10^13 units) and incubated the mixture for 15 min at room temperature before centrifugal washing three times with 0.1% PBST (6000 g, 5 min, at room temperature). The pellet was resuspended in 200 μL TM buffer and the binding of GVBP-Cy5 to GV was analyzed using an Accuri C6 Plus flow cytometer (BD Biosciences). A total of 30,000 events were collected for each analysis.

Good Vibes phage (GV) [5] = assay: GVBP-Cy5 ELISA; assay type: binding; details: GV 0.1, 1, 10 or 63 μg coated; 0.05 μg peptide; fluorescence 647/665 nm; FIG. 5C
Experimental: Applicant then added 0.05 μg of GVBP-Cy5 peptide and incubated for 1 h. […] The fluorescence was measured using an Infinite 200 Rx plate reader with excitation and emission wavelengths of 647 and 665 nm, respectively, and a gain of 50.

P. aeruginosa cells = assay: Flow cytometry of GVBP-Cy5, cells without phages; assay type: binding, Pseudomonas aeruginosa
Experimental: as §3

Good Vibes phage (GV) [6] = assay: competitive ELISA, GVER2738 against GVER2738_SYBR on GV-coated wells and on BSA-coated wells

Molecule	ELISA signal against BSA (BSA)	ELISA signal against GV (Good Vibes phage (GV) [2])	ELISA signal against CPMV [3]	ELISA signal against MAT (Matera (MAT))	also measured
H2N-WDLPPIGRLSGNGGGSK/biotin/—CO2H [GVBP-biotin]					intensity of signal of bound peptide with increasing amounts of GV coating the plates (Good Vibes phage (GV) [1]): became stronger
THLPPIMRNLQF	not against CPMV or BSA	strong signal	not against CPMV or BSA	strong signal	
H2N-WDLPPIGRLSGNGGGSK/Cy5/—CO2H (H-WDLPPIGRLSGNGGGSK(Cy5)-OH; also: C-terminal Cy5, attachment not given here) [GVBP-Cy5]					fluorescent signal (median fluorescence intensity, MFI) ([4]; cells and phages plus GVBP-Cy5, FIG. 6B): strongest fluorescent signal; APC+ shift ([4]; population containing both P. aeruginosa cells and GV phages, in the presence of GVBP-Cy5, FIG. 6A panel iv): 15.4%; binding to GV by flow cytometry ([4]; summary statement): significant binding; intensity of signal of bound peptide with increasing amounts of GV coating the plates (Good Vibes phage (GV) [5]): became stronger; fluorescent signal (median fluorescence intensity, MFI) (P. aeruginosa cells; in the absence of phage, FIG. 6B): weaker signal; APC+ shift (P. aeruginosa cells; population containing P. aeruginosa cells without phages, peptide added, FIG. 6A panel iii): 7.6%
WDLPPIGRLSGN [H2N-WDLPPIGRLSGN—CO2H]	not against CPMV or BSA	strong signal	not against CPMV or BSA	strong signal	
WDLPPIGRLSGN (modifications not checked) [monoclonal phage GVER2738 displaying the peptide …]					fold of KD value, GV against BSA (Good Vibes phage (GV) [6]): 12 times
